Reference: ChEMBL document CHEMBL5543065, “ATP ion channel P2X7 receptor as a regulatory molecule in the progression of colorectal cancer” (Eur J Med Chem, 2023)

Tests used:
[1] = tested on: HCT-116; assay: Antiproliferative activity against human HCT-116 cells assessed as reduction in cell growth incubated for 72 hrs by MTT assay; format: functional, cell-based; conditions: HCT-116, 72 h
[2] = tested on: HCT-116; assay: Antiproliferative activity against human HCT-116 cells assessed as reduction in cell viability incubated for 24 hrs by CCK-8 assay; format: functional, cell-based; conditions: HCT-116, 24 h

## O=C(Nc1ccc(C(F)(F)F)cc1)Nc1nnc(Sc2cc(NCCCN3CCOCC3)ncn2)s1
[1]
  IC50: 5520 nM

## O=C1c2ccccc2C(=O)c2c(-c3ccccc3F)noc21
[2]
  IC50: 350 nM
